# Data from paper PMC11639629, “Synthesis and Biological Evaluation of Deoxycyclophellitols as Human Retaining β‐Glucosidase Inhibitors” (Chemistry (Weinheim an Der Bergstrasse, Germany), 2024).
# Legend:
# [1] = test system: endogenous GBA1 and overexpressed human GBA2 and GBA3; experiment: ABP labeling (ABPP) in lysates of GBA2/GBA3 overexpressing HEK293T cells, selectivity pattern; type: binding; settings: pH 6.0, 30 min
# Protocol: As a negative control, lysates of HEK293T cells with knocked‐out (KO) expression of GBA1 and GBA2 were incubated with a high concentration of each ABP. The observed selectivity patterns of most compounds were in line with the results of the fluorogenic substrate assay except for 50, which labeled GBA1 less potently than expected. […] For instance, besides labeling GBA2 and GBA3 (104.6 kDa and 53.6 kDa respectively), ABP 5 labels three major off‐target proteins (~45 kDa, ~55 kDa, and ~65 kDa), and these bands appear also in the experiments with the other deoxygenated ABPs (Figure 3B). Possibly, the deoxygenated ABPs are more hydrophobic compared to ABPs 1 and 3, causing them to more readily associate with hydrophobic protein patches and subsequently engage in reactions.
# described previously.6,16
# protease inhibitor cocktail (EDTA-free, Roche)).
# The enzymes were incubated with 12.5
# The substrate mixtures diluted in
# with BODIPY fluorescent ABP 2.
# [2] = target: T1, recombinant human GBA1 (rhGBA1) (Homo sapiens, UniProt P04062, R534H); experiment: fluorogenic substrate assay (4-MU-β-D-Glu hydrolysis), rhGBA1
# T1 sequence (P04062 40-536 R534H): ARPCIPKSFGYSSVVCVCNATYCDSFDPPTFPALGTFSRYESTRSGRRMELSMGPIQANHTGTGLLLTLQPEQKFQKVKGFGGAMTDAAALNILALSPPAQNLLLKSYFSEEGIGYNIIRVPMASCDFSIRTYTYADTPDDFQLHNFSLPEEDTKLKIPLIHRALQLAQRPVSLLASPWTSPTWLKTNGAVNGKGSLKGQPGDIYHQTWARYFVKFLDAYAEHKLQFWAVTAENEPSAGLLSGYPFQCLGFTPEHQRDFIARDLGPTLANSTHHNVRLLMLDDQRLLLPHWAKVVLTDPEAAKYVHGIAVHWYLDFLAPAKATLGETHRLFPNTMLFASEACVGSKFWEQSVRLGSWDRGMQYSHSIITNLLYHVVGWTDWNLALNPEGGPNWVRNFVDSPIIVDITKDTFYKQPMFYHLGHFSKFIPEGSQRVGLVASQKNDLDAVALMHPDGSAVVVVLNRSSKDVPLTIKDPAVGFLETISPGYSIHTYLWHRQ
# Protocol: (§1) Next, all new compounds were screened on their GBA1/GBA2/GBA3 inhibitory potency in a fluorogenic substrate assay (enzyme‐mediated hydrolysis of the fluorogenic substrate, 4‐methylumbelliferyl β‐D‐glucopyranoside; 4‐MU‐β‐D‐Glu). […] The IC50 values were determined after incubation of each individual compound with either recombinant human GBA1 (rhGBA1) or lysates of HEK293T cells overexpressing GBA2 or GBA3.
# (§2) All assays were performed in 96-well plates (Greiner, black, flat-bottomed) at 37 °C. For GBA1, 3.5 ng of rhGBA1 (Imiglucerase,
# (§3) Sanofi Genzyme) was dissolved in 12.5 μL McIlvaine buffer (150 mM citric acid-Na2HPO4, pH 5.2), supplemented with 0.1%
# (§4) (v/v) Triton X-100, and 0.2% (w/v) sodium taurocholate, 0.1% (w/v) bovine serum albumin (BSA). Lysates of GBA1/GBA2 KO
# (§5) HEK293T cells overexpressing GBA2 or GBA3 were prepared by sonication on ice with Polytron PT 1300D son icator
# (§6) (Kinematica) in potassium phosphate buffer (25 mM K2HPO4/KH2PO4, pH 6.5, supplemented with 0.1% (v/v) Triton X-100 and protease inhibitor cocktail (EDTA-free, Roche)). The lysates were diluted to 12.5 μL in McIlvaine buffer (150 mM, pH 5.8 for
# (§7) GBA2 or pH 6.0 for GBA3) supplemented with 0.1% (w/v) bovine serum albumin (BSA). The enzymes were incubated with 12.5
# (§8) μL solution of inhibitors in McIlvaine buffer (150 mM, pH appropriate for each enzyme, final concentration 1% DMSO) at 37 °C
# (§9) for 30 minutes (-configured aziridines and ABP 3) or 3 hours (epoxides and -configured aziridines). This was followed by
# (§10) incubation of the samples with 100 μL of fluorogenic substrate mixtures for 30 minutes. The substrate mixtures diluted in
# (§11) McIlvaine buffer (supplemented with 0.1% (w/v) BSA) at optimal pH for each enzyme were as follows: GBA1, 3.75 mM 4-MU-
# (§12) -D-glucopyranoside (Glycosynth) at pH 5.2, supplemented with 0.2% (w/v) sodium taurocholate, 0.1% (v/v) Triton X-100, 0.1%
# (§13) (w/v) bovine serum albumin (BSA); GBA2, 4-MU--D-glucopyranoside (3.75 mM) at pH 5.8; GBA3, 4-MU--D-glucopyranoside
# (§14) (3.75 mM) at pH 6.0. After stopping the enzyme reaction with 200 μL 1 M NaOH-glycine (pH 10.3), 4-methylumbelliferone
# (§15) fluorescence was measured with a fluorimeter LS55 (Perkin Elmer) with λEX 366 nm and λEM 445 nm. Enzyme activities were
# (§16) determined by subtraction of background (measured for incubations without enzyme), normalized with enzyme activity of the
# (§17) control sample (vehicle incubation) and curve-fitted to inhibitor concentrations using GraphPad Prism 9.0 software by the
# (§18) [inhibitor] vs. response - variable slope (four parameters) method to determine IC 50 values.
# (§19) values from triplicate or duplicate experiments (n = 3 biological replicates) and error ranges indicate standard deviation (SD).
# GBA2 = target: T2, GBA2 (Homo sapiens, UniProt Q9HCG7)
# T2 sequence (Q9HCG7 1-927): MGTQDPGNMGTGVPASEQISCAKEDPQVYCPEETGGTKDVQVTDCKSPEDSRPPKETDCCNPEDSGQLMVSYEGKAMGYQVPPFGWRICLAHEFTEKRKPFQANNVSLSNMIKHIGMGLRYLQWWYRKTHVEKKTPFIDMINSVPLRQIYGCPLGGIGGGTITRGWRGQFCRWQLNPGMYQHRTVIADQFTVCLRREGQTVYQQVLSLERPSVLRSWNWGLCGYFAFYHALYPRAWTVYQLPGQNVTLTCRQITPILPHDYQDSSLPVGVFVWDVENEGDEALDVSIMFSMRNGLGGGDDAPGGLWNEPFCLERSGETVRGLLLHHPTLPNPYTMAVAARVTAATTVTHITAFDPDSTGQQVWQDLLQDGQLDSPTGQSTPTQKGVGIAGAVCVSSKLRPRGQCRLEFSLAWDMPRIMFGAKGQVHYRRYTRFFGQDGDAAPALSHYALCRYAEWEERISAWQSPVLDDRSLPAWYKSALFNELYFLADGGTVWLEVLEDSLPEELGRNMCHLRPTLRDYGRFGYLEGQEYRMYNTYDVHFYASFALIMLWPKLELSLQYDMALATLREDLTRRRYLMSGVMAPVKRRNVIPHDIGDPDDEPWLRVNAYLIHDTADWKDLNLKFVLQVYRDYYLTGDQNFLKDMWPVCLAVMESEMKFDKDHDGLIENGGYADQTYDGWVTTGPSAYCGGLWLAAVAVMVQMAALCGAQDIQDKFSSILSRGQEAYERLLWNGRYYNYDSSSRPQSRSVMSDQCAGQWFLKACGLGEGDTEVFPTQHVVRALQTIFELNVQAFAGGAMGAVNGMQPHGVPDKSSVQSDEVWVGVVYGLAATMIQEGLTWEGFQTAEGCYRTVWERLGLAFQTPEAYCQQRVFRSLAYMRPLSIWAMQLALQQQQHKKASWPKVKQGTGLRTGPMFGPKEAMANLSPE
# Protocol: as §1, §2, §3, §4, §5, §6, §7, §8, §9, §10, §11, §12, §13, §14, §15, §16, §17, §18, §19
# GBA3 = target: T3, GBA3 (Homo sapiens, UniProt Q9H227)
# T3 sequence (Q9H227 1-469): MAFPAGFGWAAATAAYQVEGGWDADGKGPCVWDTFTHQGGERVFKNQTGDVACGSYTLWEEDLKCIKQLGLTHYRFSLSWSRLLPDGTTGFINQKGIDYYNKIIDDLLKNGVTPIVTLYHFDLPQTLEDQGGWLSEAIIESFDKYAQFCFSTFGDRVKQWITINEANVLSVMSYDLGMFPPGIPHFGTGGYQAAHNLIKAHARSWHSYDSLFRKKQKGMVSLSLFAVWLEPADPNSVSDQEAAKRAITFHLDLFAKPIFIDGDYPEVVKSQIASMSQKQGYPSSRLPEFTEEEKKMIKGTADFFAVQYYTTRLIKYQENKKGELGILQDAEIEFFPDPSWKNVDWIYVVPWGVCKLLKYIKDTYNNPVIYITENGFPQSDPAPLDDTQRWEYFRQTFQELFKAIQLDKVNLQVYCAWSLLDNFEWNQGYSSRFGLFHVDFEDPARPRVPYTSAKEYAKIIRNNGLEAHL
# Protocol: as §1, §2, §3, §4, §5, §6, §7, §8, §9, §10, §11, §12, §13, §14, §15, §16, §17, §18, §19
compound,measurement,setting,value
CN1/C(=C/C=C/C=C/C2=[N+](CCCCCC(=O)NCc3cn(CCCCCCCCN4[C@@H]5[C@H](CO)[C@@H](O)[C@H](O)[C@@H](O)[C@@H]54)nn3)c3ccccc3C2(C)C)C(C)(C)c2ccccc21 (stereo partly drawn) [Compound 1],target glucosidases labeled by the ABP,[1],modifies all three GBAs
same,IC50,[2],0.00054 ± 0.00021 µM
same,IC50,GBA2,0.145 ± 0.026 µM
same,IC50,GBA3,0.031 ± 0.005 µM
CN1/C(=C/C=C/C=C/C2=[N+](CCCCCC(=O)NCc3cn(C[C@@H]4[C@@H](O)[C@H](O)[C@@H](O)[C@@H]5O[C@H]45)nn3)c3ccccc3C2(C)C)C(C)(C)c2ccccc21 [Compound 3],IC50,[2],0.042 ± 0.004 µM
same,IC50,GBA2,> 15 µM
same,IC50,GBA3,> 15 µM
CN1/C(=C/C=C/C=C/C2=[N+](CCCCCC(=O)NCc3cn(CCCCCCCCN4[C@@H]5[C@H](CO)C[C@H](O)[C@@H](O)[C@@H]54)nn3)c3ccccc3C2(C)C)C(C)(C)c2ccccc21 (stereo partly drawn) [Compound 4],target glucosidases labeled by the ABP,[1],label all three target glucosidases
same,IC50,[2],0.26 ± 0.01 µM
same,IC50,GBA2,0.24 ± 0.03 µM
same,IC50,GBA3,0.26 ± 0.06 µM
CN1/C(=C/C=C/C=C/C2=[N+](CCCCCC(=O)NCc3cn(CCCCCCCCN4[C@@H]5[C@H](CO)C[C@H](O)C[C@@H]54)nn3)c3ccccc3C2(C)C)C(C)(C)c2ccccc21 (stereo partly drawn) [Compound 5],target glucosidases labeled by the ABP,[1],"GBA2 and, to a lesser extent, GBA3"
same,IC50,[2],32 ± 3 µM
same,IC50,GBA2,0.23 ± 0.01 µM
same,IC50,GBA3,1.23 ± 0.08 µM
